According to article PMC12064818, “A general assay platform to study protein pharmacology using ligand-dependent structural dynamics” (Nature Communications, 2025):
“And” between values parts separate entries of the source, which are not always exact repeats. Identical values can stand only once.

Tests used:
[1] = biological target: FLuc-N-HiBiT (firefly luciferase) (Photinus pyralis, UniProt P08659, form not given/L550V); experiment: SDR assay, FLuc-N-HiBiT; settings: for 10 nM FLuc-N-HiBiT + 10 mM ATP, Mean / 10 nM FLuc-N-HiBiT No ATP, Mean: Log [PTC124]
[2] = biological target: T1, T7 Lig-N-HiBiT (DNA ligase) (Escherichia phage T7, UniProt P00969); experiment: SDR assay (aqueous ligand dispense), T7 Lig-N-HiBiT; settings: for SDR assay data: 1 nM T7 Lig-N-HiBiT; for SDR assay data / SDR response: Log [ATP]; for SDR response: replicates
T1 sequence (P00969 2-359): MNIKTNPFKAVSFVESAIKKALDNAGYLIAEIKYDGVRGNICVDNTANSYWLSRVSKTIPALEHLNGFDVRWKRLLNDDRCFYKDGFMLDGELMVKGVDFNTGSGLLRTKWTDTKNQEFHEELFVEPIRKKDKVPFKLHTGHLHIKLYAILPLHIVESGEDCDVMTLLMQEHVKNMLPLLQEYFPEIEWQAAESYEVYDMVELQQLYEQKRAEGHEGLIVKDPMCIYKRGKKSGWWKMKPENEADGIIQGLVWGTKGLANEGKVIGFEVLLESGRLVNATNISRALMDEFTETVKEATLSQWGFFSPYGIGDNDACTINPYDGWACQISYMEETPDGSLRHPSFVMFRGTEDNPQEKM

B. malayi iPGM-C-HiBiT = B. malayi iPGM-C-HiBiT (Brugia malayi, UniProt Q4VWF8); experiment: biochemical
P. pyralis FLuc = P. pyralis FLuc (Photinus pyralis, UniProt P08659); experiment: FLuc enzymatic luminescence assay, P. pyralis FLuc; format: biochemical; settings: FLuc enzymatic assay
Summary of the method: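 Runs with and without 10 µM ATP: compounds were pre-incubated with FLuc (1–10 nM, PBS pH 7.4) at ambient temperature, light-protected, for 30–60 min. Luminescence was imaged 5 min after adding 10 µM D-luciferin (final). Inhibition was scaled between DMSO neutral and no-enzyme controls.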

[3] = T7 Lig-N-HiBiT (1 nM), ligand 100 µM

Sequence of FLuc-N-HiBiT (firefly luciferase) (P08659 2-550 L550V, form open): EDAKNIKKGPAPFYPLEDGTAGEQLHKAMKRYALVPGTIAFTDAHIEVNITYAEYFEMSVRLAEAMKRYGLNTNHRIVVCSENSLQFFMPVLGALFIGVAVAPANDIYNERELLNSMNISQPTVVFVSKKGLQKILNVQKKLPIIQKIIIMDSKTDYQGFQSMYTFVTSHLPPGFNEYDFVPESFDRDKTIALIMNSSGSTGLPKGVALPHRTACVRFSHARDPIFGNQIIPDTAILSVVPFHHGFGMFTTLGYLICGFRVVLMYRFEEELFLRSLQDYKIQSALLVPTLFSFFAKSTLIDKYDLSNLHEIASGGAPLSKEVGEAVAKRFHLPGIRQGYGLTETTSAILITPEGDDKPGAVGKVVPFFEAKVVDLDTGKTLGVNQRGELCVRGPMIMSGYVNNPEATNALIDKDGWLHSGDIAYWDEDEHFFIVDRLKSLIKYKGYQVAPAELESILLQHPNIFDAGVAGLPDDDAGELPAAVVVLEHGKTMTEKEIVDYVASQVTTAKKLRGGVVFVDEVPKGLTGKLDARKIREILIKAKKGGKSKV
Sequence of P. pyralis FLuc (P08659 whole entry): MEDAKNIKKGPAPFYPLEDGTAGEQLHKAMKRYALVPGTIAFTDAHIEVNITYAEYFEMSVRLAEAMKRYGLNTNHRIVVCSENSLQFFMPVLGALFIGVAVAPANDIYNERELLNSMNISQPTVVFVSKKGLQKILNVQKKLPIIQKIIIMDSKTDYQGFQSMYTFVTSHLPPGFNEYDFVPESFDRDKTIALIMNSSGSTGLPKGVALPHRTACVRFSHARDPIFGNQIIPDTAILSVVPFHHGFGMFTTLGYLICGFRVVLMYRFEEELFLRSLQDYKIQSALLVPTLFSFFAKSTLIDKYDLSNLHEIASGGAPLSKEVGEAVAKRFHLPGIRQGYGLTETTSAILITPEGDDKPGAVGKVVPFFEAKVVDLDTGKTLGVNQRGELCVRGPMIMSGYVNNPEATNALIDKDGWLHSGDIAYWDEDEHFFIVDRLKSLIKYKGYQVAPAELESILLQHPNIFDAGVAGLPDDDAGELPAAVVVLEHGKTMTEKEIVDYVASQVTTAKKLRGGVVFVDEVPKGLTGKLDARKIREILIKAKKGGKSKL
Sequence of B. malayi iPGM-C-HiBiT (Q4VWF8 2-515): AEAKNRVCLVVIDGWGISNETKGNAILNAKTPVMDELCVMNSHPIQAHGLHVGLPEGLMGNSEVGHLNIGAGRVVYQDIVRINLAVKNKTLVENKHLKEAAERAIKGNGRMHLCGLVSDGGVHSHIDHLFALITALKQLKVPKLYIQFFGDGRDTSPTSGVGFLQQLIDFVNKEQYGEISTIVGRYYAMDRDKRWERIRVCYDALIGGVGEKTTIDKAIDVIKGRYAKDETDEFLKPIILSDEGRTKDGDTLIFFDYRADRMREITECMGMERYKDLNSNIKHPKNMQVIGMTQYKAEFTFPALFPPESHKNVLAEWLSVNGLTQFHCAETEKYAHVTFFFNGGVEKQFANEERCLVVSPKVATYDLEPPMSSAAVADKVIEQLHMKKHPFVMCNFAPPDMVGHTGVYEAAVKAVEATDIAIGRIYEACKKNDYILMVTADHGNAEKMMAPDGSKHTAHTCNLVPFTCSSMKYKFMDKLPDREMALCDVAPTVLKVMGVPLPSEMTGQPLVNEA

O=C(O)c1cccc(-c2noc(-c3ccccc3F)n2)c1 [PTC124, reference compound]
pSDR50, FLuc-N-HiBiT (10 nM) ([1]; 0 μM ATP): 6.64 ± 0.05 | pSDR50, FLuc-N-HiBiT (10 nM) ([1]; 10 μM ATP): 8.07 ± 0.05 | 10 nM FLuc-N-HiBiT + 10 mM ATP, Mean ([1]; M (SDR) -4.48): 41609.1 RLU | 10 nM FLuc-N-HiBiT No ATP, Mean ([1]; M (SDR) -4.48): 44446.2 RLU | 10 nM FLuc-N-HiBiT + 10 mM ATP, Mean ([1]; M (SDR) -4.96): 42409.7 RLU | 10 nM FLuc-N-HiBiT No ATP, Mean ([1]; M (SDR) -4.96): 44381.0 RLU | 10 nM FLuc-N-HiBiT + 10 mM ATP, Mean ([1]; M (SDR) -5.44): 42866.9 RLU | 10 nM FLuc-N-HiBiT No ATP, Mean ([1]; M (SDR) -5.44): 43085.6 RLU | 10 nM FLuc-N-HiBiT + 10 mM ATP, Mean ([1]; M (SDR) -5.91): 43432.3 RLU | 10 nM FLuc-N-HiBiT No ATP, Mean ([1]; M (SDR) -5.91): 42891.6 RLU | 10 nM FLuc-N-HiBiT + 10 mM ATP, Mean ([1]; M (SDR) -6.39): 43449.2 RLU | 10 nM FLuc-N-HiBiT No ATP, Mean ([1]; M (SDR) -6.39): 36744.1 RLU | 10 nM FLuc-N-HiBiT + 10 mM ATP, Mean ([1]; M (SDR) -6.87): 43724.9 RLU | 10 nM FLuc-N-HiBiT No ATP, Mean ([1]; M (SDR) -6.87): 28974.8 RLU | 10 nM FLuc-N-HiBiT + 10 mM ATP, Mean ([1]; M (SDR) -7.35): 42289.0 RLU | 10 nM FLuc-N-HiBiT No ATP, Mean ([1]; M (SDR) -7.35): 26642.9 RLU | 10 nM FLuc-N-HiBiT + 10 mM ATP, Mean ([1]; M (SDR) -7.82): 38396.4 RLU | 10 nM FLuc-N-HiBiT No ATP, Mean ([1]; M (SDR) -7.82): 23375.2 RLU | 10 nM FLuc-N-HiBiT + 10 mM ATP, Mean ([1]; M (SDR) -8.30): 32370.1 RLU | 10 nM FLuc-N-HiBiT No ATP, Mean ([1]; M (SDR) -8.30): 21721.8 RLU | 10 nM FLuc-N-HiBiT + 10 mM ATP, Mean ([1]; M (SDR) -8.78): 29426.2 RLU | 10 nM FLuc-N-HiBiT No ATP, Mean ([1]; M (SDR) -8.78): 22027.4 RLU | 10 nM FLuc-N-HiBiT + 10 mM ATP, Mean ([1]; M (SDR) -9.25): 28882.5 RLU | 10 nM FLuc-N-HiBiT No ATP, Mean ([1]; M (SDR) -9.25): 22062.2 RLU | 10 nM FLuc-N-HiBiT + 10 mM ATP, Mean ([1]; M (SDR) -9.73): 28374.1 RLU | 10 nM FLuc-N-HiBiT No ATP, Mean ([1]; M (SDR) -9.73): 21924.6 RLU | 10 nM FLuc-N-HiBiT + 10 mM ATP, Mean ([1]; M (SDR) -10.21): 28052.8 RLU | 10 nM FLuc-N-HiBiT No ATP, Mean ([1]; M (SDR) -10.21): 22527.7 RLU | 10 nM FLuc-N-HiBiT + 10 mM ATP, Mean ([1]; M (SDR) -10.69): 27509.0 RLU | 10 nM FLuc-N-HiBiT No ATP, Mean ([1]; M (SDR) -10.69): 22231.2 RLU | 10 nM FLuc-N-HiBiT + 10 mM ATP, Mean ([1]; M (SDR) -11.16): 27726.0 RLU | 10 nM FLuc-N-HiBiT No ATP, Mean ([1]; M (SDR) -11.16): 21138.2 RLU | 10 nM FLuc-N-HiBiT + 10 mM ATP, Mean ([1]; M (SDR) -11.64): 27670.3 RLU | 10 nM FLuc-N-HiBiT No ATP, Mean ([1]; M (SDR) -11.64): 21494.9 RLU

Nc1ncnc2c1ncn2[C@@H]1O[C@H](COP(=O)(O)OP(=O)(O)OP(=O)(O)O)[C@@H](O)[C@H]1O [ATP]
EC50 [2]: ≥ 100000 nM | SDR assay data ([2]; M -2.85): 436.8 and 379.9 and 405.2 | SDR assay data ([2]; M -3.15): 279.5 and 253.1 and 256.0 | SDR assay data ([2]; M -3.45): 148.4 and 136.3 and 161.1 | SDR assay data ([2]; M -3.75): 97.7 and 88.5 and 106.1 | SDR assay data ([2]; M -4.05): 63.0 and 57.2 and 69.3 | SDR assay data ([2]; M -4.35): 47.1 and 49.4 and 60.4 | SDR assay data ([2]; M -4.65): 42.9 and 27.8 and 47.0 | SDR assay data ([2]; M -4.95): 31.1 and 25.7 and 35.7 | SDR assay data ([2]; M -5.55): 21.1 and 18.2 and 32.8 | SDR assay data ([2]; M -6.46): 17.8 and 13.4 and 26.6 | SDR assay data ([2]; M -6.76): 16.5 and 24.2 and 25.4 | SDR response ([2]; M -2.85): 405.2 and 436.8 and 379.9 | SDR response ([2]; M -3.15): 256.0 and 279.5 and 253.1 | SDR response ([2]; M -3.45): 161.1 and 148.4 and 136.3 | SDR response ([2]; M -3.75): 106.1 and 97.7 and 88.5 | SDR response ([2]; M -4.05): 69.3 and 63.0 and 57.2 | SDR response ([2]; M -4.35): 60.4 and 47.1 and 49.4 | SDR response ([2]; M -4.65): 47.0 and 42.9 and 27.8 | SDR response ([2]; M -4.95): 35.7 and 31.1 and 25.7 | SDR response ([2]; M -5.25): 40.3 and 24.1 and 20.1 | SDR response ([2]; M -5.55): 32.8 and 21.1 and 18.2 | SDR response ([2]; M -5.86): 31.3 and 18.8 | SDR response ([2]; M -6.16): 32.1 and 13.9 and 17.4 | SDR response ([2]; M -6.46): 26.6 and 17.8 and 13.4 | SDR response ([2]; M -6.76): 25.4 and 16.5 and 24.2 | SDR assay response (in words) ([2]; T7 Lig-N-HiBiT): strong SDR signal | SDR assay statistics Ave RLU [2, 3]: 88.7 RLU | SDR assay statistics S:B [2, 3]: 2.0 | SDR assay statistics S:N [2, 3]: 5.7 | SDR assay statistics Z’ [2, 3]: 0.337 | max resp ([2]; T7 Lig-N-HiBiT, maximum response): 407.3

CC(C)C[C@H](NC(=O)[C@H](Cc1ccc(O)cc1)NC(=O)[C@@H]1CSCC(=O)N[C@H](Cc2ccc(O)cc2)C(=O)N[C@@H](CC(=O)O)C(=O)N[C@@H](Cc2ccc(O)cc2)C(=O)N2CCC[C@H]2C(=O)NCC(=O)N[C@@H](CC(=O)O)C(=O)N[C@@H](Cc2ccc(O)cc2)C(=O)N1)C(=O)N[C@@H](Cc1ccc(O)cc1)C(=O)NCC(=O)N[C@H](C(=O)N[C@@H](CS)C(=O)NCC(N)=O)[C@@H](C)O [Ce-2]
EC50 (B. malayi iPGM-C-HiBiT): 40.7 nM

CC(CNC(=O)C1CCN(C(=O)c2ncn3c2COC(c2ccccc2)C3)CC1)c1ccccc1 (stereo not drawn) [compound 00449795]
Efficacy (%) FLuc E (P. pyralis FLuc; Clade S follow-up): -95.72% | IC50 (P. pyralis FLuc; read-out: IC50 or SDR50 (mM) FLuc E): 0.00197 mM
